Experimental data from PubChem BioAssay (NCI).
Several values for one entry are separate records, joined by “and”; a condition that tells them apart may be missing. Equal values may be shown once.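 A five-concentration, 48-hour dose response in 96-well plates underlies each endpoint, interpolated linearly between surrounding concentrations. GI50 is the concentration that inhibits growth by half. TGI: concentration producing complete growth inhibition.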

What was measured:
Experiment in all cases: NCI-60 cell line screen, 48 h
PC-3 prostate = test system: PC-3 prostate
KM12 colon = test system: KM12 colon
OVCAR-4 ovarian = test system: OVCAR-4 ovarian
LOX IMVI melanoma = test system: LOX IMVI melanoma
UACC-62 melanoma = test system: UACC-62 melanoma
T-47D breast = test system: T-47D breast
U251 CNS = test system: U251 CNS
RXF 393 renal = test system: RXF 393 renal
SK-MEL-2 melanoma = test system: SK-MEL-2 melanoma
SK-MEL-5 melanoma = test system: SK-MEL-5 melanoma

Compound | GI50 (PC-3 prostate) | TGI (PC-3 prostate) | GI50 (KM12 colon) | TGI (KM12 colon) | GI50 (OVCAR-4 ovarian) | TGI (OVCAR-4 ovarian) | GI50 (LOX IMVI melanoma) | TGI (LOX IMVI melanoma) | GI50 (UACC-62 melanoma) | TGI (UACC-62 melanoma) | GI50 (T-47D breast) | TGI (T-47D breast) | GI50 (U251 CNS) | TGI (U251 CNS) | GI50 (RXF 393 renal) | TGI (RXF 393 renal) | GI50 (SK-MEL-2 melanoma) | TGI (SK-MEL-2 melanoma) | GI50 (SK-MEL-5 melanoma) | TGI (SK-MEL-5 melanoma)
C=C(C)[C@@H]1CC[C@]2(C(N)=O)CC[C@]3(C)[C@H](CC[C@@H]4[C@@]5(C)CC[C@H](O)C(C)(C)[C@@H]5CC[C@]43C)[C@@H]12 | 2.83 µM | 14.7 µM | 3.2 µM | 11.9 µM | 3.54 µM | 19.8 µM | 1.77 µM | 3.23 µM | 4.2 µM | 23.1 µM | 4.55 µM | 26.9 µM | 2.54 µM | 7.16 µM | 2.1 µM | 5.39 µM | 7.63 µM | 36.8 µM | 5.22 µM | 19.2 µM
C[C@H](N)C(=O)N[C@@H]1[C@H]2C(=C(O)C[C@@H](O)[C@@H]2O)C(=O)O[C@]1(C)C(Cl)Cl | – | 3.89 µM and 1.37 µM | 0.255 µM | 1.99 µM and 1.52 µM | 0.263 µM | 3.03 µM and 0.841 µM | 0.106 µM | 0.454 µM and 0.675 µM | 0.27 µM | 1.66 µM and 1.1 µM | 0.8 µM | 7.69 µM and 4.18 µM | 0.171 µM | 3.08 µM and 2.29 µM | – | 0.828 µM and 1.08 µM | 0.308 µM | 1.49 µM and 0.958 µM | 0.228 µM | 0.994 µM and 0.471 µM
COC(=O)NC1(NC(=O)OC)NC(=O)c2cc(OC)c(OC)cc2N1 | – | > 100 µM | – | > 100 µM | – | – | – | > 100 µM | – | > 100 µM | – | > 100 µM | – | – | – | – | – | 67 µM | – | > 100 µM
O=c1[nH]cc(/C=N\Nc2ccccc2)c(=O)[nH]1 | – | > 100 µM | – | > 100 µM | – | > 100 µM | – | > 100 µM | – | > 100 µM | – | > 100 µM | – | > 100 µM | – | > 100 µM | – | > 100 µM | – | > 100 µM
C/C1=C/C(=O)O[C@@H]2C[C@@H](CC[C@H](C)/C=C\C=C\CC1)O[C@@](O)([C@@H]1CSC(=O)N1CO)C2 | 0.0367 µM | 3.13 µM | 4.96 µM | 24.3 µM | 0.176 µM | 20.4 µM | 0.0228 µM | 11.1 µM | 0.0863 µM | 26.2 µM | 0.0593 µM | 47.6 µM | 0.0992 µM | 13.6 µM | 0.0367 µM | 0.276 µM | 0.0796 µM | 34.9 µM | 0.222 µM | 13.7 µM
CCCCCCCCCCCCNC(=O)[C@H]1CSC(c2cc3ccccc3s2)N1 (stereo partly specified) | 1.3 µM | 4.21 µM | 1.1 µM | 3.55 µM | 0.849 µM | 1.97 µM | 0.534 µM | 1.05 µM | 1.15 µM | 4.28 µM | 5.5 µM | 12.3 µM | 2.61 µM | 7.19 µM | 0.942 µM | 2.21 µM | 1.96 µM | 6.49 µM | 4.34 µM | 8.72 µM
COc1cc(-c2nc(NC(C)=O)sc2-c2ccnc(NCCNS(=O)(=O)c3ccccc3)n2)ccc1Cl | 2.88 µM | > 100 µM | 3.26 µM | 59.3 µM | 3.58 µM | > 100 µM | 4.41 µM | > 100 µM | 2.61 µM | > 100 µM | 2.69 µM | > 100 µM | 5.22 µM | > 100 µM | 2.74 µM | 7.53 µM | 2.42 µM | 6.23 µM | 1.58 µM | 4.25 µM
COc1ccccc1-c1cc(/C=C2\C(=O)Nc3ncc(Br)cc32)cc(Br)c1O | 9.18 µM | > 25 µM | 4.43 µM | > 25 µM | 8.96 µM | > 25 µM | 10.5 µM | > 25 µM | 6.91 µM | > 25 µM | 10.6 µM | > 25 µM | 12.7 µM | > 25 µM | 6.77 µM | > 25 µM | 8.89 µM | > 25 µM | 11.4 µM | > 25 µM
CCOC(=O)C(Cc1c[nH]c2ccc([N+](=O)[O-])cc12)(NC(C)=O)C(=O)OCC | – | – | > 1000 µM | > 1000 µM | – | – | > 419 µM | > 1000 µM | 40.5 µM | > 1000 µM | 50.1 µM | > 1000 µM | 134 µM | > 564 µM | 66.4 µM | 261 µM | > 1000 µM | > 1000 µM | – | –
CCC(=O)C1(c2ccccc2)CCN(C)CC1 | – | > 100 µM | – | > 100 µM | – | > 100 µM | – | – | – | – | – | > 100 µM | – | > 100 µM | – | > 100 µM | – | – | – | > 100 µM
COC(=O)[C@H]1C(=O)[C@@]2(C)[C@H]([C@H](OC(=O)c3ccccc3)[C@]3(O)C[C@H](OC(=O)[C@H](O)[C@@H](NC(=O)c4ccc(F)cc4)c4ccccc4)C(C)=C1C3(C)C)[C@]1(OC(C)=O)CO[C@@H]1C[C@@H]2O | 0.0164 µM | > 25 µM | 0.00629 µM | – | 0.633 µM | > 25 µM | 0.00974 µM | > 25 µM | 0.0122 µM | > 25 µM | 0.0106 µM | > 25 µM | 0.0103 µM | > 25 µM | 0.0152 µM | > 25 µM | – | – | 0.0104 µM | > 9.79 µM
O=C(NCCc1ccccc1)C(c1ccccc1)(c1ccccc1)c1ccccc1 | 31 µM | > 100 µM | 3.19 µM | 11.3 µM | > 100 µM | > 100 µM | – | – | 1.46 µM | 14.6 µM | 30.4 µM | > 100 µM | 2.93 µM | 12.4 µM | – | – | 7.04 µM | 29.8 µM | 8.97 µM | 21.4 µM
Fc1ccc(-c2nn3c(CNc4ccccc4)nnc3s2)cc1 | 31 µM | > 100 µM | 14.9 µM | > 100 µM | 90.7 µM | > 100 µM | 29.4 µM | 96.7 µM | 18.4 µM | 53.7 µM | 29.6 µM | > 100 µM | 23.5 µM | > 100 µM | > 100 µM | > 100 µM | – | – | 17.5 µM | 36.7 µM
CO/[N+]([O-])=C\C(=O)N/C=C/C(=O)O | – | > 100 µM | – | > 100 µM | – | > 100 µM | – | > 100 µM | – | > 100 µM | – | > 100 µM | – | > 100 µM | – | > 100 µM | – | – | – | > 100 µM
